Consider 23 compounds from patent US11629139B2 (priority 2017, dated 2023).

Some results are limits rather than exact numbers.

The subject of the first test is vesicular stomatitis virus particles (VSV) pseudotyped with EboV Zaire GP. Briefly: microbe, parasite or virus in culture. It counts as cell-based. Particulars: Vesicular stomatitis virus.
Turning to `COC(=O)c1ccc(COc2ccccc2CN2CCN(C(=O)CNC(=O)CC3CC(F)(F)C3)CC2)cc1` [Compound 1315, Methyl 4-((2-((4-((2-(3,3-difluorocyclobutyl)acetyl)glycyl)piperazin-1-yl)methyl)phenoxy)methyl)benzoate], the IC50 was determined as 400 nM.

Turning to `COC(=O)c1ccc(COc2ccccc2CN2CCN(C(=O)CNC(=O)C3CC34CCCCC4)CC2)cc1` (centres unmarked) [Compound 1316, Methyl 4-((2-((4-((spiro[2.5]octane-1-carbonyl)glycyl)piperazin-1-yl)methyl)phenoxy)methyl)benzoate], the IC50 was found to be 70 nM.

The compound `COC(=O)c1ccc(COc2ccccc2CN2CCN(C(=O)CNC(=O)C3CC3(C)C)CC2)cc1` (centres unmarked) [Compound 1317, Methyl 4-((2-((4-((2,2-dimethylcyclopropane-1-carbonyl)glycyl)piperazin-1-yl)methyl)phenoxy)methyl)benzoate] returned an IC50 of 400 nM.

In turn, `COC(=O)c1ccc(COc2ccccc2CN2CCN(C(=O)CNC(=O)OC3CCC(F)(F)CC3)CC2)cc1` [Compound 1319, Methyl 4-((2-((4-((((4,4-difluorocyclohexyl)oxy)carbonyl)glycyl)piperazin-1-yl)methyl)phenoxy)methyl)benzoate] showed an IC50 of 310 nM.

In the case of `COC(=O)c1ccc(COc2ccccc2CN2CCN(C(=O)CNC(=O)NC3CCC(F)(F)CC3)CC2)cc1` [Compound 1320, Methyl 4-((2-((4-(((4,4-difluorocyclohexyl)carbamoyl)glycyl)piperazin-1-yl)methyl)phenoxy)methyl)benzoate], the IC50 is greater than 2000 nM.

`Nc1ccc(Cl)cc1CN1CCN(C(=O)CNC(=O)CC23CC4CC(CC(C4)C2)C3)CC1` [Compound 1321, 2-((1R,3R,5S)-Adamantan-1-yl)-N-(2-(4-(2-amino-5-chlorobenzyl)piperazin-1-yl)-2-oxoethyl)acetamide] came in with an IC50 of 90 nM.

As for `COC(=O)c1cccc(Oc2cc(Cl)cc(CN3CCN(C(=O)CNC(=O)CC45CC6CC(CC(C6)C4)C5)CC3)c2)c1` [Compound 1322, Methyl 3-(3-((4-((2-((1R,3R,5S)-adamantan-1-yl)acetyl)glycyl)piperazin-1-yl)methyl)-5-chlorophenoxy)benzoate], the IC50 was determined as 11 nM.

Take `O=C(CC12CC3CC(CC(C3)C1)C2)NCC(=O)N1CCN(Cc2cc(F)c(F)cc2O)CC1` [Compound 1324, 2-((1R,3R,5S)-Adamantan-1-yl)-N-(2-(4-(4,5-difluoro-2-hydroxybenzyl)piperazin-1-yl)-2-oxoethyl)acetamide]: 1500 nM corresponded to half-maximal inhibition (IC50).

As for `O=C(CC12CC3CC(CC(C3)C1)C2)NCC(=O)N1CCN(Cc2cc(F)cc(F)c2O)CC1` [Compound 1325, 2-((1R,3R,5S)-Adamantan-1-yl)-N-(2-(4-(3,5-difluoro-2-hydroxybenzyl)piperazin-1-yl)-2-oxoethyl)acetamide], inhibition was half-maximal at 1000 nM (IC50).

Regarding `O=C(CC12CC3CC(CC(C3)C1)C2)NCC(=O)N1CCN(Cc2cc(Cl)cc(C(F)(F)F)c2)CC1` [Compound 1326, 2-((1R,3R,5S)-Adamantan-1-yl)-N-(2-(4-(3-chloro-5-(trifluoromethyl)benzyl)piperazin-1-yl)-2-oxoethyl)acetamide], it took 920 nM to reach half-maximal inhibition (IC50).

Turning to `O=C(CC12CC3CC(CC(C3)C1)C2)NCC(=O)N1CCN(Cc2cc(Cl)cc(F)c2F)CC1` [Compound 1327, 2-((1R,3R,5S)-Adamantan-1-yl)-N-(2-(4-(5-chloro-2,3-difluorobenzyl)piperazin-1-yl)-2-oxoethyl)acetamide], the IC50 was found to be 670 nM.

Regarding `COC(=O)c1ccc(COc2ccccc2CN2CCN(C(=O)CNC(=O)C3(C)CCC(F)(F)CC3)CC2)cc1` [Compound 1328, Methyl 4-((2-((4-((4,4-difluoro-1-methylcyclohexane-1-carbonyl)glycyl)piperazin-1-yl)methyl)phenoxy)methyl)benzoate], it took 250 nM to reach half-maximal inhibition (IC50).

With `N#Cc1ccc(Br)cc1CN1CCN(C(=O)CNC(=O)CC23CC4CC(CC(C4)C2)C3)CC1` [Compound 1329, 2-((1R,3R,5S)-Adamantan-1-yl)-N-(2-(4-(5-bromo-2-cyanobenzyl)piperazin-1-yl)-2-oxoethyl)acetamide], the IC50 amounted to 310 nM.

Regarding `O=C(CC12CC3CC(C1)C(C3)C2)NCC(=O)N1CCN(Cc2cc(Cl)cc(OC(F)(F)F)c2)CC1` [Compound 1330], half-maximal inhibition (IC50) was put at 1510 nM.

The compound `O=C(CC12CC3CC(CC(C3)C1)C2)NCC(=O)N1CCN(Cc2cc(Cl)cc(Br)c2)CC1` [Compound 1332, 2-((1R,3R,5S)-Adamantan-1-yl)-N-(2-(4-(3-bromo-5-chlorobenzyl)piperazin-1-yl)-2-oxoethyl)acetamide] registered an IC50 of 900 nM.

With `COC(=O)c1ccc(COc2ccc(Cl)cc2CN2CCN(C(=O)CNC(=O)CC3CCC(F)(F)CC3)CC2)cc1` [Compound 1333, Methyl 4-((4-chloro-2-((4-((2-(4,4-difluorocyclohexyl)acetyl)glycyl)piperazin-1-yl)methyl)phenoxy)methyl)benzoate], half-maximal inhibition (IC50) required 15 nM.

As to `COC(=O)c1ccc(COc2ccc(Cl)cc2CN2CCN(C(=O)CNC(=O)CC3(C)CCCCC3)CC2)cc1` [Compound 1334, Methyl 4-((4-chloro-2-((4-((2-(1-methylcyclohexyl)acetyl)glycyl)piperazin-1-yl)methyl)phenoxy)methyl)benzoate], inhibition was half-maximal at 19 nM (IC50).

Take `COC(=O)c1ccc(COc2ccc(F)cc2CN2CCN(C(=O)CNC(=O)CC3CCC(F)(F)CC3)CC2)cc1` [Compound 1335, Methyl 4-((2-((4-((2-(4,4-difluorocyclohexyl)acetyl)glycyl)piperazin-1-yl)methyl)-4-fluorophenoxy)methyl)benzoate]: the IC50 was 18 nM.

The compound `COC(=O)c1ccc(COc2ccc(F)cc2CN2CCN(C(=O)CNC(=O)CC3(C)CCCCC3)CC2)cc1` [Compound 1336, Methyl 4-((4-fluoro-2-((4-((2-(1-methylcyclohexyl)acetyl)glycyl)piperazin-1-yl)methyl)phenoxy)methyl)benzoate] came in with a concentration for half-maximal inhibition (IC50) of 51 nM.

As for `O=C(CC12CC3CC(CC(C3)C1)C2)NCC(=O)N1CCN(Cc2cc(Br)ccc2F)CC1` [Compound 1337, 2-((1R,3R,5S)-Adamantan-1-yl)-N-(2-(4-(5-bromo-2-fluorobenzyl)piperazin-1-yl)-2-oxoethyl)acetamide], the midpoint of inhibition, the IC50, lay at 1200 nM.

Turning to `O=C(CC12CC3CC(CC(C3)C1)C2)NCC(=O)N1CCN(Cc2cc(Br)ccc2Cl)CC1` [Compound 1338, 2-((1R,3R,5S)-Adamantan-1-yl)-N-(2-(4-(5-bromo-2-chlorobenzyl)piperazin-1-yl)-2-oxoethyl)acetamide], it took 82 nM to reach half-maximal inhibition (IC50).

In the case of `O=C(CC12CC3CC(CC(C3)C1)C2)NCC(=O)N1CCN(Cc2cc(F)cc(Br)c2)CC1` [Compound 1339, 2-((1R,3R,5S)-Adamantan-1-yl)-N-(2-(4-(3-bromo-5-fluorobenzyl)piperazin-1-yl)-2-oxoethyl)acetamide], the midpoint of inhibition, the IC50, lay at 1400 nM.

Staying with this test, now noted: read-out: IC50.
On to `COC(=O)c1ccc(Oc2cc(Cl)cc(CN3CCN(C(=O)CNC(=O)CC45CC6CC(CC(C6)C4)C5)CC3)c2)cc1` [Compound 1323, Methyl 4-(3-((4-((2-((1R,3R,5S)-adamantan-1-yl)acetyl)glycyl)piperazin-1-yl)methyl)-5-chlorophenoxy)benzoate], for which the IC50 was found to be 15 nM.
